Laboratory results as given in US9470680B2, “Fluorescence-based approach to monitor release factor-catalyzed termination of protein synthesis” (THE TRUSTEES OF COLUMBIA UNIVERSITY IN THE CITY OF NEW YORK, priority 2011, dated 2016).

How the values were obtained:
[1] = test system: RC2 (release complex with L1(Cy5) ribosomes and (Cy3)tRNAPhe); assay: L1-tRNA smFRET monitoring the GS1/GS2 equilibrium; type: biochemical, Escherichia coli
Procedure: RCs assembled on a biotinylated mRNA were immobilized on the surface of a streptavidin-derivatized quartz flow cell and visualized with single-molecule resolution using a total internal reflection fluorescence microscope. RC surface immobilization strategy and lab-built total internal reflection fluorescence (TIRF) microscope are described in FIG. 10. Experiments were performed at room temperature in Tris-polymix buffer at 15 mM Mg(OAc)2, supplemented with an oxygen-scavenging system (300 μg ml^−1 glucose oxidase, 40 μg ml^−1 catalase and 1% (w/v)(β-D-glucose). In addition, 1 mM 1,3,5,7-cyclooctatetraene (Aldrich) and p-nitrobenzyl alcohol (Fluka) was added to all buffers in order to quench a long-lived, non-fluorescent triplet state sampled by the Cy5 fluorophore. The oxygen-scavenging and triplet state quencher systems have no effect on the in vitro translation system used herein (Gonzalez et al. 2007; Blanchard et al. 2004b).
(§1) Quartz microscope slides were cleaned and subsequently derivatized with a mixture of polyethyleneglycol (PEG) and PEG-biotin in order to passivate the surface (Blanchard et al. 2004b). Just prior to data acquisition, slides were treated with streptavidin, allowing immobilization of ribosomal RCs bound to an mRNA with a 3′-biotinylated DNA oligonucleotide pre-annealed to its 5′ end. smFRET data was collected with a wide-field, prism-based total internal reflection fluorescence microscope utilizing a 150 mW diode-pumped 532 nm laser (CrystaLaser) operating at 24 mW for Cy3 excitation, a 25 mW diode-pumped 643 nm laser (CrystaLaser) operating at 19 mW for direct Cy5 excitation, a Dual-View multi-channel imaging system (MAG Biosystems) for separation of Cy3 and Cy5 fluorescence emissions, and a back-thinned charge-coupled device camera (Cascade II, Princeton Instruments) with 2-pixel binning and 50 ms exposure time for detection. Single ribosomal RCs were identified by characteristic single-fluorophore fluorescence intensities as well as single-step fluorophore photobleaching.
Raw intensity data was analyzed with the Metamorph software suite (Molecular Devices). […] For L1-tRNA smFRET experiments with RC2, excited Cy5 was directly with the 643 nm laser in frame one, followed by excitation with the 532 nm laser in order to generate FRET. […] Acquired trajectories composed of a pair of Cy3 and Cy5 intensity versus time trajectories from single ribosomes, were then visually inspected. […] For all RRF and RF3(GDPNP) datasets, an automated selection algorithm was first utilized before visual inspection of the trajectories. This algorithm averages each trajectory over three data points, differentiates intensity with respect to time, and calculates the correlation coefficient for each Cy3/Cy5 pair. Trajectories with a negative correlation coefficient (anti-correlated) were kept for further analysis. Finally, all trajectories were required to last at least 0.5 seconds (i.e. 10 frames) before photobleaching of either fluorophore.
Cy3 and Cy5 fluorescence intensities were baseline corrected in each trajectory by generating one-dimensional Cy3 and Cy5 fluorescence intensity histograms from trajectories within each dataset, determining the intensity value of the most populated bin (which represents background noise intensity after fluorophore photobleaching), and then subtracting this value from all Cy3 and Cy5 intensity data points within every trajectory. Due to the imperfect performance of emission filters, the Cy3 signal bleed-through into the Cy5 channel was experimentally determined to be ˜9%. The Cy5 intensity of each trajectory was corrected using this bleed-through coefficient. smFRET values for each Cy3/Cy5 data point were calculated using ICy5/(ICy3+ICy5), where ICy3 and ICy5 are the intensities of Cy3 and Cy5, respectively.
The rates of GS1→GS2 (kGS1→GS2) and G52→GS1 (kGS2→GS1) transitions for each dataset were determined as follows. […]

[2] = test system: polypeptide release at a stop codon; conditions: cited from earlier work
[3] = target: GS2 conformation of the PoTC (RC2Pmn); assay: RRF titration, binding isotherm fit of GS2/GS1 peak area ratio; design: species or system Escherichia coli
Source text: (§2) To more quantitatively probe the subtle effect of RRF on the GS1⇄GS2 equilibrium, one-dimensional smFRET histograms of the entire population of trajectories were plotted as a function of RRF concentration (FIG. 24). The areas under the peaks centered at 0.16 and 0.76 FRET report the equilibrium populations of GS1 and GS2, respectively. […] Assuming that RRF can bind to both GS1 and GS2, a plot of the GS2/GS1 peak area ratio (Keq) vs. RRF concentration can be fit by the following binding isotherm in order to determine the equilibrium dissociation constants for RRF binding to GS1 (Kd,GS1) and GS2 (Kd,GS2) (Sarkar et al. 2007):
(§3) [formula] where C is the GS2/GS1 peak area ratio in the absence of RRF.

[4] = target: GS1 conformation of the PoTC (RC2Pmn); assay: as above; design: species or system Escherichia coli
Source text: as §2, §3

[5] = target: vacant ribosomes; conditions: in the absence of mRNA or tRNAs; read-out: Kd of RRF binding to vacant ribosomes; cited from earlier work
[6] = test system: RF1-bound RCs; assay: RF3 activity assay (RF3-catalyzed RF1 recycling, multiple-turnover peptide release); type: biochemical, Escherichia coli; conditions: limiting RF1; GDP, GTP or GDPNP; 10 minutes
Procedure: RF3 activity was tested by following the extent of peptide release in cases where RF1 was limiting and RF3 was required to actively recycle RF1, thereby enabling multiple turnover (Zavialov et al. 2001). Reactions were performed as described, with two exceptions: when present, GDP, GTP, or GDPNP was added to the RF1/RF3 mix during the 1 minute pre-incubation, and upon adding the RF1/RF3/nucleotide mix to RCs, reactions were incubated for 10 minutes.

[7] = test system: RC1 (release complex, fMet-Phe-(Cy3)tRNAPhe in the P site, stop codon at the A site); assay: RF1-tRNA smFRET between P-site (Cy3)tRNAPhe and (Cy5)RF1 bound at the A site; type: binding, Escherichia coli; conditions: UAA-U stop codon, in the presence of paromomycin (100 μM per FIG. 11)
Source text: RCs assembled on a biotinylated mRNA were immobilized on the surface of a streptavidin-derivatized quartz flow cell and visualized with single-molecule resolution using a total internal reflection fluorescence microscope. RC surface immobilization strategy and lab-built total internal reflection fluorescence (TIRF) microscope are described in FIG. 10. […]
as §1, with “Single ribosomal RCs were identified by characteristic single-fluorophore fluorescence intensities as well as single-step fluorophore photobleaching.” left out
Raw intensity data was analyzed with the Metamorph software suite (Molecular Devices). […]

[8] = RC2Pmn in the presence of 1 μM factor
[9] = RC2Pmn, 0-1.5 μM RRF (near Kd,GS2)
[10] = RC2RF1 in the presence of 1 μM RF1, RF3(GDP) and 1 mM GTP
[11] = RC2RF1 in the presence of 1 μM RF1 and 1 μM RF3 form, no GTP
[12] = RC2 pre-treated with puromycin (RC2Pmn), no factors, corrected rate

## RF3(GDPNP): RF3 with GDPNP, a non-hydrolyzable GTP analog
[1]; [8]
  trajectories fluctuating between 0.16 and 0.76 FRET: 22%
  trajectories stably centered at / sampling only 0.16 FRET (GS1): 5%
  trajectories stably centered at / sampling only 0.76 FRET (GS2): 73%

## RF1: Escherichia coli class 1 release factor 1, purified, co-expressed with PrmC methyltransferase
[1]; [8]
  trajectories fluctuating between 0.16 and 0.76 FRET: 9%
  trajectories stably centered at / sampling only 0.16 FRET (GS1): 85%
  trajectories stably centered at / sampling only 0.76 FRET (GS2): 6%
[1]; RC2 in the presence of 1 μM factor
  trajectories fluctuating between 0.16 and 0.76 FRET: 2%
[1]; RC2 in the presence of 1 μM factor (87% without RF1)
  trajectories stably centered at 0.16 FRET (GS1): 98%

## NC[C@@H]1O[C@H](O[C@H]2[C@@H](O)[C@H](O[C@@H]3[C@@H](O)[C@H](N)C[C@H](N)[C@H]3O[C@H]3O[C@H](CO)[C@@H](O)[C@H](O)[C@H]3N)O[C@@H]2CO)[C@H](N)[C@@H](O)[C@@H]1O [paromomycin]
[2]
  inhibition of polypeptide release at a stop codon: very strongly inhibits polypeptide release at a stop codon

## RRF: Escherichia coli ribosome recycling factor
[3]; RC2Pmn + RRF titration
  Kd: 900 ± 300 nM
[3]; from Kd,GS2 and Kd,GS1
  binding to GS2 over GS1: greater than an order of magnitude tighter binding to GS2 over GS1
[4]
  Kd: 12000 ± 2000 nM
[1]; 50 μM RRF versus 0.52±0.03 s^−1
  kGS1→GS2 relative to free RC2Pmn: 1.6 fold
[1]; [8]
  trajectories fluctuating between 0.16 and 0.76 FRET: 70%
  trajectories stably centered at / sampling only 0.16 FRET (GS1): 7%
  trajectories stably centered at / sampling only 0.76 FRET (GS2): 23%
[1]; [9]
  kGS1→GS2 as a function of RRF concentration: remain unchanged
  kGS2→GS1 as a function of RRF concentration: decreases linearly
[1]; RC2Pmn, 50 μM RRF
  kGS1→GS2: 0.83 ± 0.06 s⁻¹
[5]
  Kd: 200 to 600 nM

## RF3(GDP): RF3 in the GDP form
[1]; RC2RF1+RF3(GDP)+GTP versus 1.36±0.03 s^−1
  kGS2→GS1 relative to RC2Pmn in the absence of RF1, RF3 and guanine nucleotide: ~3 fold
[1]; RC2RF1+RF3(GDP)+GTP, 1 μM RF1, 10 μM GDP and 1 mM GTP, corrected rate, lower limit
  kGS2→GS1: ≥ 3.7 ± 0.6 s⁻¹
[1]; [10]
  trajectories exhibiting fluctuations between GS1 and GS2: 42%
  trajectories stably centered at 0.16 FRET (GS1): 58%
[1]; [11]
  trajectories fluctuating between 0.16 and 0.76 FRET: 2%
  trajectories stably centered at 0.16 FRET (GS1): 98%

## RF3: Escherichia coli class II release factor, a GTPase
[6]
  nucleotide dependence of RF3-catalyzed RF1 recycling: exhibits the proper nucleotide dependence in recycling RF1

## S192C: single-cysteine S192C RF1 (PVT domain) labeled with Cy5
[7]
  lifetime of the FRET state (dwell time analysis): < 0.38 ± 0.02 s

## COc1ccc(C[C@H](N)C(=O)N[C@H]2[C@@H](O)[C@H](n3cnc4c(N(C)C)ncnc43)O[C@@H]2CO)cc1 [puromycin, reference compound]
[1]; RC2 pre-treated with puromycin (RC2Pmn), no factors
  trajectories fluctuating between 0.16 and 0.76 FRET: ~63%
[1]; [12]
  kGS1→GS2: 0.52 ± 0.03 s⁻¹
  kGS2→GS1: 1.36 ± 0.03 s⁻¹

## nucleotide-free RF3: RF3 without guanine nucleotide
[1]; [11]
  trajectories fluctuating between 0.16 and 0.76 FRET: 1%
  trajectories stably centered at 0.16 FRET (GS1): 99%
